Calls of active or inactive are those of the source. No cut-off for these calls is given here.
Key:
Leishmania donovani = assay: Reversible inhibition of recombinant Leishmania donovani C-terminal His6-tagged Nucleoside hydrolase expressed in Escherichia coli BL21(DE3) cells assessed recovery of enzyme activity at 10 times of IC50 preincubated for 20 mins followed by inosine addition by jump dilution experiment based assay
[1] = Noncompetitive inhibition of recombinant Leishmania donovani C-terminal His6-tagged Nucleoside hydrolase expressed in Escherichia coli BL21(DE3) cells assessed as decrease in Vmax using 0.01 to 3 mM of inosine as substrate preincubated for 20 mins followed by inosine addition
[2] = Inhibition of recombinant Leishmania donovani C-terminal His6-tagged Nucleoside hydrolase expressed in Escherichia coli BL21(DE3) cells assessed as reduction in uric acid formation by coupled assay

SMILES | inhibition (Leishmania donovani) | Ki [1] [µM] | IC50 [2] [µM]
O=C(/C=C/c1ccc(O)cc1)O[C@@H]1Cc2c(O)cc3c(c2O[C@@H]1c1ccc(O)c(O)c1)[C@H]1c2c(O)cc(O)cc2O[C@@](c2cc(O)c(O)c(O)c2)(O3)[C@@H]1O | Active | 27.9 | 28.2
O=C(/C=C/c1ccc(O)cc1)O[C@@H]1Cc2c(O)cc3c(c2O[C@@H]1c1ccc(O)c(O)c1)[C@H]1c2c(O)cc(O)cc2O[C@@](c2ccc(O)c(O)c2)(O3)[C@@H]1O | Active | 21.2 | 25.6

— ChEMBL document CHEMBL4602667, “An NMR-Based Chemometric Strategy to Identify Leishmania donovani Nucleoside Hydrolase Inhibitors from the Brazilian Tree Ormosia arborea” (J Nat Prod, 2020)
